Measured values published in article PMC2999882 (Molecular pharmacology, 2008).
Read-outs that look alike come from different tables or passages of the source.

What was measured:
other nAChR tested = conditions: cited from earlier work
α7 nAChR [1] = conditions: cited from earlier work
[2] = target: T1, muscle type (α1β1εδ) nAChR (Homo sapiens, UniProt P02708+Q04844+Q07001); format: cell-based
[3] = target: T1, muscle type (α1β1εδ) nAChR; format: cell-based; remark: listed apart in the source
α3β4 nAChR = α3β4 nAChR (Homo sapiens, UniProt P30926+P32297)
α7 nAChR [4] = target: α7 nAChR (Homo sapiens, UniProt P36544)
α4β2 nAChR [5] = target: T2, α4β2 nAChR (Homo sapiens, UniProt P17787+P43681); format: cell-based
α4β2 nAChR [6] = target: T2, α4β2 nAChR; test: cell-based; format: cell-based
5HT3 receptors [7] = target: T3, 5HT3 receptors (Homo sapiens, UniProt P46098); format: cell-based
T3 sequence (P46098 24-478): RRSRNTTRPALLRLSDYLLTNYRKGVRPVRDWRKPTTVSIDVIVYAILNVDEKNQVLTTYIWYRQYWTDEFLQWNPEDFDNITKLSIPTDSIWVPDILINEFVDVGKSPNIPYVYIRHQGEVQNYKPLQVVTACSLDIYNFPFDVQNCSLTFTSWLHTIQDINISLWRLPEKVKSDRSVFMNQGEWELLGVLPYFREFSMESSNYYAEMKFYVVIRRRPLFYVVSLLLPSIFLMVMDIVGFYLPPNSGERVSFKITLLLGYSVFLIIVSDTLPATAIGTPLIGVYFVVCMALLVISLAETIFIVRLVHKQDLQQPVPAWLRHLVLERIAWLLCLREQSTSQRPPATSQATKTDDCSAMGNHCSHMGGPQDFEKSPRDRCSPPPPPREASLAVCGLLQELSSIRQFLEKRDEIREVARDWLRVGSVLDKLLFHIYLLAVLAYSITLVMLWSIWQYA

5HT3 receptors [8] = target: T3, 5HT3 receptors; format: cell-based; remark: listed apart in the source
5HT3 receptors [9] = target: T3, 5HT3 receptors; conditions: cited from earlier work

T1 sequence (P02708 21-457): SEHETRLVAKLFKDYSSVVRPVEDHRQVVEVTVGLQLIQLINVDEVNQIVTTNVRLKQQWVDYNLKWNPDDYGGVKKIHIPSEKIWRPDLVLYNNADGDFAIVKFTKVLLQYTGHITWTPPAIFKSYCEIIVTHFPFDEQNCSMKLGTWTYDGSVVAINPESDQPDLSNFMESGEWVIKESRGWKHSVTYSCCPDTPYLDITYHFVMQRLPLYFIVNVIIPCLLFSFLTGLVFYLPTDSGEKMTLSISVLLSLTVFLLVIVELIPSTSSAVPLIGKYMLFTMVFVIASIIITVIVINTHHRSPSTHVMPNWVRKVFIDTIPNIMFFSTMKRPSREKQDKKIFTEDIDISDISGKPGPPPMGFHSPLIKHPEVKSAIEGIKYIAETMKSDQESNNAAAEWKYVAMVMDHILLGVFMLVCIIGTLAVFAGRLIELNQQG
T1 sequence (P11230 24-501 partner): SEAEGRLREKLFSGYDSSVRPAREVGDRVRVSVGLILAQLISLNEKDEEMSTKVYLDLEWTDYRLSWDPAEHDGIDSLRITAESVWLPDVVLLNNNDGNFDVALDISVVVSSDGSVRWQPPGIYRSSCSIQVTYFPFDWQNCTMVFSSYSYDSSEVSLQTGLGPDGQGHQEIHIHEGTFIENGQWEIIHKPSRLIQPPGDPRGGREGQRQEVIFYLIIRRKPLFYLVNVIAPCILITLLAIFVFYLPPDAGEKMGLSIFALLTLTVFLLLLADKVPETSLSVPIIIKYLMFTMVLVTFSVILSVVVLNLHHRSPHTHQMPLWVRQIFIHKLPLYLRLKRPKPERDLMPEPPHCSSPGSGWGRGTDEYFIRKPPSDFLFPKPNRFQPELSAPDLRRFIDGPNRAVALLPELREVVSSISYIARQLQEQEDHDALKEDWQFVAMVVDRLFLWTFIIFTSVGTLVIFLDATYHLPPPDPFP
T1 sequence (Q04844 21-493): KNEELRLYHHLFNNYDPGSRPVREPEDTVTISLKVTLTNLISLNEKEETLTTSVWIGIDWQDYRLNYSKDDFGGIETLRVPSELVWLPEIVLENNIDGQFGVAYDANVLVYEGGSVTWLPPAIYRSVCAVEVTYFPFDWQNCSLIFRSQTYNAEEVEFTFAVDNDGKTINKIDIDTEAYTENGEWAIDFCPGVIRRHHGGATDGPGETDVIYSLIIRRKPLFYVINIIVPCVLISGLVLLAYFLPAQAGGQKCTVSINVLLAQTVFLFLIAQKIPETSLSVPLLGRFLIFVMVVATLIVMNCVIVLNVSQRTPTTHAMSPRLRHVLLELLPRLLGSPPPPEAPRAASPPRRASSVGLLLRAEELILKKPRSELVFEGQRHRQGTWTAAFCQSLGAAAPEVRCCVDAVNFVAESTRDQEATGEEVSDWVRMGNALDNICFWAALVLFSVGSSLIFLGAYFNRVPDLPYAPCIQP
T1 sequence (Q07001 22-517): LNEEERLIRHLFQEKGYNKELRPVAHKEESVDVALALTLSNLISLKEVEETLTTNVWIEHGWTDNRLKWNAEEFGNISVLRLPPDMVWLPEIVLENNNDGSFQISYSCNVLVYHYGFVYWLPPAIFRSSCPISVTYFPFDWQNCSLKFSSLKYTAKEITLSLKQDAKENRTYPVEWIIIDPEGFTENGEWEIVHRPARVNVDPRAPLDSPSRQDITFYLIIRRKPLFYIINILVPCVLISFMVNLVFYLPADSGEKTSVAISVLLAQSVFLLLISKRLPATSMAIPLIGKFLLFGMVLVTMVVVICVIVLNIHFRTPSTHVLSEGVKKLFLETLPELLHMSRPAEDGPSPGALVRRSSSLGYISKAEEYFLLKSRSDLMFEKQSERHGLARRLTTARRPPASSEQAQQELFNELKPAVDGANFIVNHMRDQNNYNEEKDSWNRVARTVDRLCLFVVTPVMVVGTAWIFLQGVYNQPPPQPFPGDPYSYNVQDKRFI
T2 sequence (P43681 29-627 limits assumed): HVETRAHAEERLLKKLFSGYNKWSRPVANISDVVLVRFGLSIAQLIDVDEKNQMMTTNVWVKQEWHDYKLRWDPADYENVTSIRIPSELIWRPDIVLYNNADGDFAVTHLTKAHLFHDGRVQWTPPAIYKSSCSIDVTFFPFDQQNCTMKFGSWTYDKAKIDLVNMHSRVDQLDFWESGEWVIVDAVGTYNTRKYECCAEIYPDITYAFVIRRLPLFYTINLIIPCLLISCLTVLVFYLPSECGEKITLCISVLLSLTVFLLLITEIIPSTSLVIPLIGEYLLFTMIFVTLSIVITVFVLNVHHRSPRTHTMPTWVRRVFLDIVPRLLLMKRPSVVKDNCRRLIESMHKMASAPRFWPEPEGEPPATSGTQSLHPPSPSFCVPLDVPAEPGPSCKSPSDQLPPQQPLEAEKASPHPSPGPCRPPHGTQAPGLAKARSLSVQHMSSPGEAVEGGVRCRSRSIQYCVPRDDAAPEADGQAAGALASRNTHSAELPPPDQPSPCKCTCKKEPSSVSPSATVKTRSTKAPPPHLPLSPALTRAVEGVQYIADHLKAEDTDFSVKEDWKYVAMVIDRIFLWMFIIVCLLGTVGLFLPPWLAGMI
T2 sequence (P17787 26-502): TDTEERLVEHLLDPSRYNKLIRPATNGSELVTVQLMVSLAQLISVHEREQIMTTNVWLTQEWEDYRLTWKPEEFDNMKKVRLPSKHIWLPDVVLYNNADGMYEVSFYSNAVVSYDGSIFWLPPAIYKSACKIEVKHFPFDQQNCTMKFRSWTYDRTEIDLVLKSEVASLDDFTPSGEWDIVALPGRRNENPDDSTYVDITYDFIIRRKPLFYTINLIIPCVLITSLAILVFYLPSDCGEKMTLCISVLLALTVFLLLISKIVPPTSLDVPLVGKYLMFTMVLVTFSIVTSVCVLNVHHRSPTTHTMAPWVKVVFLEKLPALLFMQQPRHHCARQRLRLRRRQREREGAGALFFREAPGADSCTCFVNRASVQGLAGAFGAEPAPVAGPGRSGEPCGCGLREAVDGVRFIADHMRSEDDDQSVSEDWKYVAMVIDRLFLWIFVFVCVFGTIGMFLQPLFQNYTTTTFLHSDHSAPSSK
α3β4 nAChR, sequence (P32297 32-505): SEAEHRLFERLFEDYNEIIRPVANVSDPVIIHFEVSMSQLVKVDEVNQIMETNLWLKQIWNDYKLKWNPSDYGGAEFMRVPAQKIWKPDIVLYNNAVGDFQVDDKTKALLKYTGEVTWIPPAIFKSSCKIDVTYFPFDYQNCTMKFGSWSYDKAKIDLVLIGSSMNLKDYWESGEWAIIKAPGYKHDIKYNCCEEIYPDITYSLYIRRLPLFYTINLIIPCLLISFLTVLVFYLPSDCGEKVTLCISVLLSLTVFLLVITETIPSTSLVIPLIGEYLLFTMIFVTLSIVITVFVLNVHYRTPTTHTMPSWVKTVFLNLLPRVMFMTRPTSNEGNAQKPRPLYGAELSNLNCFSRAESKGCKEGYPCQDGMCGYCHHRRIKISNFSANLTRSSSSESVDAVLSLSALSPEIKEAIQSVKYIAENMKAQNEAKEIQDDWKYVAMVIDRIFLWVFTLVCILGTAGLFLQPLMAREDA
α3β4 nAChR, sequence (P30926 22-498): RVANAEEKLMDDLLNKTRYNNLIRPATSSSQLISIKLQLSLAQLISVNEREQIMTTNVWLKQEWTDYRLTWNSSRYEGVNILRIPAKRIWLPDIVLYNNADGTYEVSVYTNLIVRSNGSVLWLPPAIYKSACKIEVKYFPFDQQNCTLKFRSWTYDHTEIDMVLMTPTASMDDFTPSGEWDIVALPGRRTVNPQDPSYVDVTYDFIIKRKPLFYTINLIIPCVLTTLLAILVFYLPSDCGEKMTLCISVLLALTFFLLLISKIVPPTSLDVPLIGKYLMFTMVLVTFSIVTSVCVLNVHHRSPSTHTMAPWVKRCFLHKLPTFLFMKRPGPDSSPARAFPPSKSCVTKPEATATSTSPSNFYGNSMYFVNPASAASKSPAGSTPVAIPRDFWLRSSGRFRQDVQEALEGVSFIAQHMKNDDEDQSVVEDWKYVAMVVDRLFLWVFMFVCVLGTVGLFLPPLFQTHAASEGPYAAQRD
α7 nAChR (Homo sapiens, UniProt P36544), sequence (P36544 23-502): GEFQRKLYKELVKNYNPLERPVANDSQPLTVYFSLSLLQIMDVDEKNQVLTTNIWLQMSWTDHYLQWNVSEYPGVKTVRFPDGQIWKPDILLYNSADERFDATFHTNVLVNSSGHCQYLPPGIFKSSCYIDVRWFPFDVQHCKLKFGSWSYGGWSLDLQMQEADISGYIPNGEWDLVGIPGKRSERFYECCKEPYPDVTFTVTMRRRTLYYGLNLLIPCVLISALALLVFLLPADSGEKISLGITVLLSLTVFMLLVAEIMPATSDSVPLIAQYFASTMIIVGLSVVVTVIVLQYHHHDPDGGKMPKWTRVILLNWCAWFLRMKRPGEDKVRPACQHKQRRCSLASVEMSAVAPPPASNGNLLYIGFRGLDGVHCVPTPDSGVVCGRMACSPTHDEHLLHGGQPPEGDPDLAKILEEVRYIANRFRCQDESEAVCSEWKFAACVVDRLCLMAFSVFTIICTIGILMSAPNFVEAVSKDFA

## CN1C[C@@H]2CN(c3ccc4oc5ccccc5c(=O)c4c3)C[C@@H]2C1 [A-844606]
Other nAChR tested
  activity at other nAChR (Summary): Partial agonist of a7 with relatively little activation of other nAChR tested. Demonstrated to have antagonist activity for α4β2 and more potently for putative α3β4. Mechanism of antagonism not investigated.
α7 nAChR [1]
  agonist character at α7 (Summary): Partial agonist of a7 with relatively little activation of other nAChR tested. Demonstrated to have antagonist activity for α4β2 and more potently for putative α3β4. Mechanism of antagonism not investigated.

## C(=C1/CN2CCC1CC2)/c1ccccc1.Cl [BQNZ, (Z)-3-benzylidene-1-azoniabicyclo[2.2.2]octane chloride]
[2]
  α1β1εδ Inhibition: N.S.
[3]
  α1β1εδ Activity: ≈7%
α3β4 nAChR
  agonist character at α3β4: significant activation
  α3β4 Imax: 0.10 ± 0.01
α7 nAChR [4]
  EC50: 7.3 ± 0.7 µM
  α7 Imax: 0.11 ± 0.01
α4β2 nAChR [5]
  α4β2 Inhibition: 74 ± 6%
α4β2 nAChR [6]
  α4β2 Activity: ≈1%
5HT3 receptors [7]
  5HT3 Inhibition: 95 ± 4%
5HT3 receptors [8]
  5HT3 Activity: N

## C(=C1\CN2CCC1CC2)/c1ccccc1.Cl [BQNE, E-3-benzylidene-1-azoniabicyclo[2.2.2]-octane chloride]
[2]
  α1β1εδ Inhibition: 70 ± 7%
[3]
  α1β1εδ Activity: N
α3β4 nAChR
  α3β4 Imax: <0.01
α7 nAChR [4]
  selectivity classification: α7-selective
  α7 Imax: 0.28 ± 0.01
α4β2 nAChR [5]
  α4β2 Inhibition: 77 ± 2%
α4β2 nAChR [6]
  α4β2 Activity: N
5HT3 receptors [7]
  5HT3 Inhibition: 94 ± 5%
5HT3 receptors [8]
  5HT3 Activity: N

## CC[N+](C)(C)CC [dEdMA, diethyldimethylammonium]
[2]
  α1β1εδ Inhibition: N.S.
[3]
  α1β1εδ Activity: N
α3β4 nAChR
  α3β4 Imax: 0.06 ± 0.01
  α3β4 efficacy, fold difference (versus ETMA): greater than 10 fold
α7 nAChR [4]
  selectivity classification: α7-selective agonists
  α7 Imax: 0.95 ± 0.06
α7 nAChR [4]; read-out: α7 EC50
  EC50: 197 ± 37 µM
α4β2 nAChR [5]
  α4β2 Inhibition: 52 ± 5%
α4β2 nAChR [6]
  α4β2 Activity: N
5HT3 receptors [7]
  5HT3 Inhibition: N.S.
5HT3 receptors [8]
  5HT3 Activity: N

## COc1ccc(/C=C2/CN3CCC2CC3)cc1.Cl [MeOBQNE, (E)-3-(4-methoxybenzylidene)-1-azoniabicyclo[2.2.2]-octane chloride]
[2]
  α1β1εδ Inhibition: 90 ± 2%
[3]
  α1β1εδ Activity: N
α3β4 nAChR
  α3β4 Imax: <0.01
α7 nAChR [4]
  α7 Imax: 0.41 ± 0.03
α4β2 nAChR [5]
  α4β2 Inhibition: 81 ± 2%
α4β2 nAChR [6]
  α4β2 Activity: N
5HT3 receptors [7]
  5HT3 Inhibition: 94 ± 5%
5HT3 receptors [8]
  5HT3 Activity: N

## quinuclidinone [QN-O]
[2]
  α1β1εδ Inhibition: N.S.
[3]
  α1β1εδ Activity: N
α3β4 nAChR
  α3β4 Imax: ≥0.07±
α3β4 nAChR; read-out: α3β4 EC50
  EC50: > 1000 µM
α7 nAChR [4]
  selectivity classification: α7-selective agonists
  α7 Imax: 0.73 ± 0.04
  α7 potency, fold lower than related agonists that lack the oxygen group (e.g., ETMA and QN): at least 10 fold
α7 nAChR [4]; read-out: α7 EC50
  EC50: 78 ± 11 µM
α4β2 nAChR [5]
  α4β2 Inhibition: N.S.
α4β2 nAChR [6]
  α4β2 Activity: N
5HT3 receptors [7]
  5HT3 Inhibition: N.S.
5HT3 receptors [8]
  5HT3 Activity: N

## CCN(CC)CCOc1ccc2c(c1)C(=O)c1cc(OCCN(CC)CC)ccc1-2 [Tilorone]
Other nAChR tested; α4β2, putative α3β4 (IMR-32), ref Briggs et al., 2008
  activity at other nAChR (Summary): antagonist activity for α4β2 and more potently for putative α3β4
α7 nAChR [1]; human α7, rat α7, oocytes, transfected cells, ref Briggs et al., 2008
  agonist character at α7 (Summary): Partial agonist

## C[N+]12CCC(CC1)CC2.[I-] [MQN, 1-methyl-1-azoniabicyclo[2.2.2]octane iodide]
[2]
  α1β1εδ Inhibition: N.S.
[3]
  α1β1εδ Activity: N
α3β4 nAChR
  agonist character at α3β4: essentially all activity was lost
  α3β4 Imax: 0.025 ± 0.006
α7 nAChR [4]
  agonist character at α7: fully effective
  α7 Imax: 1.0 ± 0.1
α4β2 nAChR [5]
  α4β2 Inhibition: 72 ± 4%
α4β2 nAChR [6]
  α4β2 Activity: N
5HT3 receptors [7]
  5HT3 Inhibition: N.S.
5HT3 receptors [8]
  5HT3 Activity: N

## C[N+]1(C)CCCC(O)C1 (centres unmarked) [N,N-dimethyl-3-piperidinol]
α7 nAChR [4]
  agonist activity on α7: inactive

## CC(=O)OCC[N+](C)(C)C [ACh, acetylcholine, reference compound]
α3β4 nAChR; peak current, relative to ACh maximum (ACh constrained to 1)
  α3β4 Imax: 1.0
α7 nAChR [4]
  α7 Imax: 1.0

## CN1[C@@H]2CC[C@H]1CC(=O)C2 [Tropinone]
5HT3 receptors [9]
  Effects on 5HT3 Receptors: Neither agonist nor antagonist activity detected

## C[N+]1(C)CCCCC1 [Dimethyl piperidinium]
5HT3 receptors [9]
  Effects on 5HT3 Receptors: Antagonist activity reported

## CC[N+](C)(C)C [ETMA, reference compound]
[2]
  α1β1εδ Inhibition: N.S.
[3]
  α1β1εδ Activity: N
α3β4 nAChR
  agonist character at α3β4: partial agonists
  α3β4 Imax: 0.78 ± 0.04
α3β4 nAChR; read-out: α3β4 EC50
  EC50: 660 ± 90 µM
α7 nAChR [4]
  α7 Imax: 1.0 ± 0.1
α7 nAChR [4]; read-out: α7 EC50
  EC50: 19 ± 2 µM
α4β2 nAChR [5]
  α4β2 Inhibition: 40 ± 9%
α4β2 nAChR [6]
  α4β2 Activity: ≤2%
5HT3 receptors [7]
  5HT3 Inhibition: N.S.
5HT3 receptors [8]
  5HT3 Activity: N

## O=C(N[C@H]1CN2CCC1CC2)c1cc2ccoc2cn1 [PHA-543,613, N-[(3R)-1-azabicyclo[2.2.2]oct-3-yl]furo[2,3-c]pyridine-5-carboxamide]
5HT3 receptors [9]; ref Wishka et al., 2006
  5HT3 receptors, inhibitory activity at: Inhibitory activity at ≈ 600 nM

## O=C(Oc1ccc(Br)cc1)N1CCN2CCC1CC2 [SSR-180711]
α7 nAChR [1]; binding and voltage-clamp experiments, ref Biton et al., 2007
  agonist character at α7 (Summary): A relatively potent partial agonist with selectivity for α7 compared with other nAChR subtypes tested established by binding and voltage-clamp experiments.

## CN1[C@@H]2CCC[C@H]1CC2 [Tropane]
5HT3 receptors [9]
  Effects on 5HT3 Receptors: Neither agonist nor antagonist activity detected

## CN1[C@@H]2CC[C@H]1C[C@@H](OC(=O)c1c[nH]c3ccccc13)C2 [Tropisetron]
5HT3 receptors [9]; ref Macor et al., 2001, Papke et al., 2005a
  Effects on 5HT3 Receptors: Competitive antagonist

## C[N+](C)(C)C [TMA, tetramethyl-ammonium, reference compound]
[2]
  α1β1εδ Inhibition: N.S.
[3]
  activation of muscle-type nAChRs: detectable activation
  α1β1εδ Activity: <2%
α3β4 nAChR
  agonist character at α3β4: partial agonists
  α3β4 Imax: 0.55 ± 0.03
α3β4 nAChR; read-out: α3β4 EC50
  EC50: 350 ± 190 µM
α7 nAChR [4]
  selectivity classification: non-α7-selective
  α7 Imax: 1.1 ± 0.1
α7 nAChR [4]; read-out: α7 EC50
  EC50: 30 ± 3 µM
α4β2 nAChR [5]
  α4β2 Inhibition: N.S.
α4β2 nAChR [6]
  α4β2 Activity: 19 ± 6%
5HT3 receptors [7]
  5HT3 Inhibition: N.S.
5HT3 receptors [8]
  5HT3 Activity: N

## OCCN1CCCCC1 [1-(2-hydroxyethyl)piperidine]
α7 nAChR [4]; 300 µM, data not shown
  agonist activity on α7: inactive

## OCCN1CCCC1 [1-(2-hydroxyethyl)pyrrolidine]
α7 nAChR [4]
  agonist activity on α7: inactive

## C1CN2CCC1CC2 [QN, quinuclidine]
[2]
  α1β1εδ Inhibition: N.S.
[3]
  activation of muscle-type nAChRs: detectable activation
  α1β1εδ Activity: 3%
α3β4 nAChR
  EC50: 180 ± 10 µM
  agonist character at α3β4: partial agonist
  α3β4 Imax: 0.64 ± 0.01
  α3β4 efficacy, % that of ACh: 64%
  α3β4 response, % of the ACh maximum: 46 ± 2%
α7 nAChR [4]
  EC50: 7.2 ± 0.5 µM
  agonist character at α7: potent and fully efficacious agonist
  selectivity classification: non-α7-selective
  α7 Imax: 1.03 ± 0.02
  α7 activation at 300 µM: maximal activation
α4β2 nAChR [5]
  α4β2 Inhibition: 74 ± 5%
α4β2 nAChR [6]
  α4β2 Activity: ≈2%
α4β2 nAChR [6]; read-out: α4β2 response, % of the ACh maximal responses
  Emax: 3.2 ± 0.7%
5HT3 receptors [7]
  5HT3 Inhibition: N.S.
5HT3 receptors [8]
  5HT3 Activity: N

## O=C(N[C@@H]1C[C@H]2CCN(C2)C1)c1cc2ccoc2cn1 [PHA-709829, N-[(3R,5R)-1-azabicyclo[3.2.1]oct-3-yl]furo[2,3-c]pyridine-5-carboxamide]
5HT3 receptors [9]; ref Acker et al., 2008
  5HT3 receptors, inhibitory activity at: Inhibitory activity at ≈ 300 nM

## CC[N+]12CCC(CC1)CC2.[I-] [EQN, 1-ethyl-1-azoniabicyclo[2.2.2]octane iodide]
α3β4 nAChR
  agonist character at α3β4: comparable with the current evoked in uninjected oocytes
α7 nAChR [4]
  agonist character at α7: weak partial agonist
  mecamylamine-sensitive current, % of the total current: 58 ± 3%

## O=C1NCC2(CN3CCC2CC3)O1 (single isomer, unassigned; (-)) [AR-R17779, (−)-Spiro[1-azabicyclo[2.2.2]octane-3,5′-oxazolidin-2′-one]]
5HT3 receptors [9]
  Effects on 5HT3 Receptors: None

## COc1ccc(/C=C2\CN3CCC2CC3)cc1.Cl [MeOBQNZ, (Z)-3-(4-methoxybenzylidene)-1-azoniabicyclo[2.2.2]octane chloride]
[2]
  α1β1εδ Inhibition: 76 ± 6%
[3]
  α1β1εδ Activity: ≤1%
α3β4 nAChR
  α3β4 Imax: <0.01
α7 nAChR [4]
  EC50: 1.1 ± 0.8 µM
  α7 Imax: 0.09 ± 0.01
α4β2 nAChR [5]
  α4β2 Inhibition: 56 ± 4%
α4β2 nAChR [6]
  α4β2 Activity: N
5HT3 receptors [7]
  5HT3 Inhibition: 80 ± 16%
5HT3 receptors [8]
  5HT3 Activity: N
